Source: patent US20210290597A1, “METHOD OF TREATING A CONDITION ASSOCIATED WITH NEURODEGENERATION USING INHIBITORS OF OAT3” (Neuropore Therapies, Inc., priority 2018, published 2021)

Assays:
amyloid beta = assay: Amyloid beta staining (6E10), L41 APP transgenic mice; format: in vivo; conditions: 5 mg/kg daily i.p.
Procedure: As described earlier, Line 41 transgenic mice express high levels of the mutant hAPP751 and develop mature plaques in the cortex, hippocampus, thalamus and olfactory region of mouse brain. The effects of Compound 1 on Amyloid beta plaque formation were assessed in both L41 APP transgenic and non-transgenic mice in a 1 month administration study. After 30 days, the mice were sacrificed, and immunofluorescence (IF) detection of amyloid beta were assessed in the harvested brain tissues.
The harvested brain tissues were drop fixed using 4% PFA and sectioned on a vibratome, and representative sections containing the neuropil of cortex, hippocampus and striatum were assessed for amyloid beta with standard IHC staining.
On approximately day 30, all subjects were euthanized within 2 hours of the last treatment and brain and other samples were collected. Brains were removed and divided sagitally. […]
Prepared slides were imaged at 40× using a high-resolution Hamamatsu Nanozoomer™ scanner located in the Microscopy Core in the UCSD Department of Neurosciences. Digital images were then transferred to Neuropore and analyzed using the Halo® imaging software package (Indica Labs, Corrales, N. Mex.). […] Images were evaluated for specimen and imaging problems and any issues were noted prior to unblinding of samples and statistical analyses.

human transporter URAT1 = molecular target: T1, human transporter URAT1 (Homo sapiens, UniProt Q96S37); assay: In vitro transport assay 2, URAT1; format: cell-based; conditions: 20 μM [14C]-uric acid
T1 construct: expressed in transfected cells; host or cells: MDCK-II
T1 sequence (Q96S37 1-553): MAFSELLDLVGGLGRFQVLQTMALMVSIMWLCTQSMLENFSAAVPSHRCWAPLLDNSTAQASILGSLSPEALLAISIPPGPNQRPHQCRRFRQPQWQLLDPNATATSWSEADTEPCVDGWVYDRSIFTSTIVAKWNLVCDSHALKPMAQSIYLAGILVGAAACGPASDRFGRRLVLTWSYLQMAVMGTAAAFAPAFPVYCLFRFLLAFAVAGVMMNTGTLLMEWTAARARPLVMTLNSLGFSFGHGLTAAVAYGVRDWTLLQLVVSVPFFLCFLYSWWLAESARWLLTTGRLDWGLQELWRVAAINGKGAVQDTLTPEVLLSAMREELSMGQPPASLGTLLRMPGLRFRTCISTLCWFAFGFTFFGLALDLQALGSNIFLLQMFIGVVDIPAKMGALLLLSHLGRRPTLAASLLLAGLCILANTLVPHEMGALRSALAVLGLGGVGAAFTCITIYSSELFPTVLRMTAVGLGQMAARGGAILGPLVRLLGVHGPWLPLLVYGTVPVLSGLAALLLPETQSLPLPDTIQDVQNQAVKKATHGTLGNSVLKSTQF
Procedure: Compound 1 was studied in the concentration range of 0.1-10 μM for its potency against transport mediated by various transporter proteins.

In the case of `O=S(=O)(c1ccc(-n2cn[nH]c2=S)cc1)c1ccc(Cl)c(C(F)(F)F)c1` [Compound 1, 4-(4-((4-chloro-3-(trifluoromethyl)phenyl)sulfonyl)phenyl)-2,4-dihydro-3H-1,2,4-triazole-3-thione], the “amyloid beta level vs vehicle-treated Line 41 mice” value (amyloid beta) is reported as “reduces the amyloid beta level in a statistically significant manner” and the IC50 (human transporter URAT1) is reported as > 10 µM.
